Assay results published in patent US11564923B2, “Compounds and pharmaceutical compositions thereof for the treatment of inflammatory disorders” (Galapagos NV, priority 2017, dated 2023).
pIC50: −log10 of the molar value.

Experiments:
[1] = system: IL-12 activation of STAT4 in NK-92 cells; assay: IL-12 activation of STAT4 in NK-92 cells using MSD as readout; type: cell-based; settings: Homo sapiens, NK92; NK-92 cells, rhIL-12 25 ng/mL, MSD readout; read-out: IL12 pSTAT4 IC50
Protocol: IL-2 is added freshly to the medium with each medium refreshment step. Cells are cultured in a humidified incubator at 37° C. 5% CO2.
NK-92 cells are pre-incubated with test compounds or vehicle for 30 min at 37° C. 5% CO2. […] NK-92 cells are triggered with rhIL-12 for 45 min at 37° C. 5% CO2.
After 45 min of cytokine stimulation the cells are lysed by addition of 50 μL ice-cold lysis buffer (supplemented with the MSD kit). Plates are frozen at −80° C. for minimal 1 hour to lyse the cells completely. After thawing the levels of phospho-STAT4 are quantified using the Phospho-STAT4 (Tyr693) kit (MSD, Catalogue number K150PAD-2) according to the manufacturer's instructions. Electroluminescent signal is measured on the MSD reader.
The percentage inhibition is calculated as: […]
RLU (trigger/veh): Relative lumescent signal determined in presence of vehicle and trigger
RLU (test compound): Relative luminescent signal determined in presence of test compounds)
PIN values are plotted for compounds tested in dose-response and IC50 values are derived using LIMS Software applying non-linear regression (sigmoidal) curve fitting. The data are expressed as the average IC50 from different experiments.

[2] = target: T1, Recombinant human TYK2 catalytic domain (amino acids 871-1187) (Homo sapiens, UniProt P29597); assay: TYK2 radioactive assay polyGT substrate; type: biochemical; further: 0.1 µM ATP
T1 construct: catalytic domain (amino acids 871-1187)
T1 sequence (P29597 871-1187): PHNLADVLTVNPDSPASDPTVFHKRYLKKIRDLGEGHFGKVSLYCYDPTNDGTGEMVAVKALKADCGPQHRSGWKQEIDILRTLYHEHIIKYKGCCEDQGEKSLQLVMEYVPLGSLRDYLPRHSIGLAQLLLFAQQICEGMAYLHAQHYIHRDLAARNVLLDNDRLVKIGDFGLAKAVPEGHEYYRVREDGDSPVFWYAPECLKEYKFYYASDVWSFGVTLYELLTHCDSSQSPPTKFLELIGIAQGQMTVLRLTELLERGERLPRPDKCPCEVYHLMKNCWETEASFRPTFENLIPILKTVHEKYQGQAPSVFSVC
Method in brief: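 Reaction at 30° C. for 120 min, ended with 150 mM phosphoric acid, washed, counted; percent inhibition scaled between vehicle and 10 μM staurosporine cpm.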

[3] = system: IL-12 activation of STAT4 in NK-92 cells; assay: IL-12 activation of STAT4 in NK-92 cells using AphaLISA SureFire technology; type: cell-based; settings: Homo sapiens, NK92; IL-12 activation of STAT4 in NK-92 cells, AlphaLISA SureFire; average IC50; read-out: IL12 pSTAT4 IC50
Method in brief: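 NK-92 cells, starved of rhIL-2 overnight, were stimulated with rhIL-12 for 30 min at 37 °C with test compounds, then lysed. Phospho-STAT4 (Tyr693) was read by AlphaLISA SureFire. Percent inhibition versus the vehicle-plus-trigger signal was fitted by sigmoidal nonlinear regression to give IC50, averaged over experiments.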

[4] = system: IFNα activation of STAT1 in PBMC; assay: IFNα activation of STAT1 in PBMC; type: cell-based; settings: Homo sapiens; IFNα activation of STAT1 in PBMC; average IC50; read-out: IFNα signaling inhibitory potency IC50
Method in brief: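 Human PBMC, with red cells lysed by NH4Cl, were pre-treated with compound for 30 min at 37 °C and 5% CO2. They were then stimulated for 30 min with recombinant human IFNα at 5 ng/mL final.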

Structure (SMILES) | pIC50 [1] | pIC50 [2] | pIC50 [3] | pIC50 [4]
Cc1cc(C(F)(F)F)ncc1Oc1cc(Nc2cc(N)ncn2)c2ncn(C)c2n1 [Compound 1, N-[3-Methyl-5-(4-methyl-6-trifluoromethyl-pyridin-3-yloxy)-3H-imidazo[4,5-b]pyridin-7-yl]-pyrimidine-4,6-diamine] | 6.27 | 8.00 | 6.96 | 7.07
Cc1cc(C#N)ncc1Nc1cc(Nc2ccc(C(=O)N(C)C)cn2)c2ncn(C)c2n1 [Compound 67, 6-[[5-[(6-cyano-4-methyl-3-pyridyl)amino]-3-methyl-imidazo[4,5-b]pyridin-7-yl]amino]-N,N-dimethyl-pyridine-3-carboxamide] | 6.63 | 8.47 | 7.27 | 7.29
Cc1cc(C#N)ncc1Oc1cc(Nc2ccc(S(=O)(=O)C(F)F)cc2)c2ncn(C)c2n1 [Compound 68, 5-[7-[4-(difluoromethylsulfonyl)anilino]-3-methyl-imidazo[4,5-b]pyridin-5-yl]oxy-4-methyl-pyridine-2-carbonitrile] | 5.84 | 7.81 | 6.91 | 6.89
Cc1cc(C#N)ncc1Oc1cc(Nc2ccc(S(=O)(=O)C3CC3)cc2)c2ncn(C)c2n1 [Compound 69, 5-[7-(4-cyclopropylsulfonylanilino)-3-methyl-imidazo[4,5-b]pyridin-5-yl]oxy-4-methyl-pyridine-2-carbonitrile] | 6.69 | 8.22 | 7.37 | 7.05
Cc1cc(C#N)ncc1N(c1cc(Nc2cc(N)ncn2)c2ncn(C)c2n1)C1CC1 [Compound 88, 5-[[7-[(6-aminopyrimidin-4-yl)amino]-3-methyl-imidazo[4,5-b]pyridin-5-yl]-cyclopropyl-amino]-4-methyl-pyridine-2-carbonitrile] | 7.05 | 9.28 | 7.66 | 7.85
Cn1cnc2c(Nc3ccc(S(C)(=O)=O)cn3)cc(NC(C3CC3)C(F)(F)F)nc21 (stereo not drawn) [Compound 92, N5-(1-cyclopropyl-2,2,2-trifluoro-ethyl)-3-methyl-N7-(5-methylsulfonyl-2-pyridyl)imidazo[4,5-b]pyridine-5,7-diamine] | 6.55 | 9.00 | – | 7.17
CC(C)C(Nc1cc(Nc2cc(N)ncn2)c2ncn(C)c2n1)C(F)(F)F (stereo not drawn) [Compound 93, N7-(6-aminopyrimidin-4-yl)-3-methyl-N5-[2-methyl-1-(trifluoromethyl)propyl)imidazo[4,5-b]pyridine-5,7-diamine] | 6.70 | 8.30 | 7.60 | 7.19
